Reference: patent US20120027687A1, “FATTY ACID PROTEIN KINASE C ACTIVATORS AND ANTICOAGULANT FOR THE TREATMENT OF STROKE” (priority 2010, published 2012)

What was measured:
PKCδ = biological target: T1, PKCδ (Homo sapiens, UniProt Q05655); assay: PKC assay with purified PKCδ; assay type: biochemical; details: about 1-100 μM, data not shown
T1 construct: purchased Calbiochem
Procedure: Protein kinase C assay. Rat hippocampal cells were cultured and scraped in 0.2 ml homogenization buffer (20 mM Tris-HCl, pH 7.4, 50 mM NaF, 1 μg/ml leupeptin, and 0.1 mM PMSF) and homogenized by sonication a Marsonix microprobe sonicator (5 sec, 10W). To measure PKC, 10 μl of cell homogenate or purified PKC isozyme (purchased from Calbiochem) was incubated for 15 min at 37° C. in the presence of 10 μM histones, 4.89 mM CaCl2, 1.2 μg/μl phosphatidyl-L-serine, 0.18 μg/μl 1,2-dioctanoyl-sn-glycerol, 10 mM MgCl2, 20 mM HEPES (pH 7.4), 0.8 mM EDTA, 4 mM EGTA, 4% glycerol, 8 μg/ml aprotinin, 8 μg/ml leupeptin, and 2 mM benzamidine. 0.5 Ci [^γ32P]ATP was added and ^32P-phosphoprotein formation was measured by adsorption onto phosphocellulose as described previously. Nelson and Alkon, J. Neurochemistry (1995), vol. 65, pp. 2350-2357. For measurements of activation by BR-101 (DCP-LA) and similar compounds. PKC activity was measured in the absence of diacylglycerol and phosphatidylserine and PKC δ, ε, η, and μ were measured in the absence of added EGTA and CaCl2, as described by Kanno et al. (J. Lipid Res. 2006, vol. 47, pp. 1146-1150). […]
To determine their PKC isozyme specificity, fatty acid derivatives were preincubated with purified PKC for five minutes and the PKC activity was measured radiometrically.

Aβ = Aβ production in N2a neuroblastoma cells transfected with human APPSwe/PSID; assay type: cell-based, mouse; details: 24 hours
Procedure: Cell culture. Rat hippocampal H19-7/IGF-IR cells (ATCC, Manassas, Va.) were plated onto poly-L-lysine coated plates and grown at 35° C. in DMEM/10% FCS for several days until about 50% coverage was obtained. The cells were then induced to differentiate into a neuronal phenotype by replacing the medium with 5 ml N2 medium containing 10 ng/ml basic fibroblast growth factor at 39° C. and grown in T-75 flasks at 37° C. Human SH-SY5Y neuroblastoma cells (ATCC) were cultured in 45% F12K/45% MEM/10% FCS. Mouse N2A neuroblastoma cells were cultured in DMEM/10% FCS without glutamine. Rat hippocampal neurons from 18-day-old embryonic Sprague Dawley rat brains were plated on 12- or 96-well plates coated with poly-D-lysine (Sigma-Aldrich, St. Louis, Mo.) in B-27 neurobasal medium containing 0.5 mM glutamine and 25 μM glutamate (Invitrogen, Carlsbad, Calif.) and cultured for three days in the medium without glutamate. The neuronal cells were grown under 5% CO2 in an incubator maintained at 37° C. for 14 days.
(§1) Aβ Measurement and Cell Viability Assay. Aβ was measured using an Aβ 1-42 human fluorimetric ELISA kit (Invitrogen) according to the manufacturer's instructions. Results were measured in a Biotek Synergy HT microplate reader. AlamarBlue and CyQuant NF (Invitrogen) according to the manufacturer's instructions.
To measure the effects of PKCε activation on Aβ production, mouse neuro2a (N2a) neuroblastoma cells transfected with human APPSwe/PSID were used, which produce large quantities of Aβ. Petanceska et al., J. Neurochem. (1996), vol. 74, pp. 1878-1884. […] With bryostatin, which activates PKC by binding to the diacylglycerol-binding site, the inhibition was biphasic with concentrations of 20 nM or higher producing no net effect. This may be explained by the ability of this class of PKC activators to downregulate PKC when used at high concentrations.

[1] = tested on: SH-SY5Y neuroblastoma cells; assay: Cell survival and proliferation (alamar Blue, CyQuant); assay type: cell-based, human; details: alamar Blue and CyQuant staining
Procedure: as §1

TACE = TACE activity in neuronal cells; assay type: cell-based, human, mouse; details: SH-SY5Y cells, N2a cells, primary neurons from rat hippocampus
Procedure: TACE Assay. TACE was measured by incubating 5 μl cell homogenate, 3 μl buffer (50 mM Tris-HCl 7.4 plus 25 mM NaCl plus 4% glycerol), and 1 μl of 100 μM TACE substrate (Aβz-[…]-DPa) (Calbiochem) for 20 min at 37° C. 1.5-ml polypropylene centrifuge tubes. Jin et al., Anal. Biochem. (2002), vol. 302, pp. 269-275. The reaction was stopped by cooling to 4° C. The samples were diluted to 1 ml and the fluorescence was rapidly measured (ex=320 nm, em=420 nm) in a Spex Fluorolog 2 spectrofluorometer.

[2] = tested on: Endothelin-converting enzyme (ECE); assay: Endothelin-converting enzyme (ECE) activity in neuroblastoma cells; assay type: cell-based, human; details: bryostatin 0.27 nM, BR-101 1 μM, BR-111 1 μM
Procedure: ECE assay. […] neuroblastoma cells were incubated with bryostatin (0.27 nM), BR-101 (DCP-LA) (1 μM), and BR-111 (DHA-CP6) (1 μM). Endothelin-converting enzyme (ECE) was measured fluorimetrically using the method of Johnson and Ahn (Anal. Biochem. (2000), vol. 286, pp. 112-118). A sample of cell homogenate (20 μl) was incubated in 50 mM MES-KOH, pH 6.0, 0.01% C12E10 (polyoxyethylene-10-lauryl ether), and 15 μM McaBK2 (7-Methoxycoumarin-4-acetyl [Ala7-(2,4-Dinitrophenyl)Lys9]-bradykinin trifluoroacetate salt) (Sigma-Aldrich). After 60 min at 37° C., the reaction was quenched by adding trifluoroacetic acid to 0.5%. The sample was diluted to 1.4 ml with water and the fluorescence was measured at ex=334 nm, em=398 nm.

T1 sequence (Q05655 whole entry): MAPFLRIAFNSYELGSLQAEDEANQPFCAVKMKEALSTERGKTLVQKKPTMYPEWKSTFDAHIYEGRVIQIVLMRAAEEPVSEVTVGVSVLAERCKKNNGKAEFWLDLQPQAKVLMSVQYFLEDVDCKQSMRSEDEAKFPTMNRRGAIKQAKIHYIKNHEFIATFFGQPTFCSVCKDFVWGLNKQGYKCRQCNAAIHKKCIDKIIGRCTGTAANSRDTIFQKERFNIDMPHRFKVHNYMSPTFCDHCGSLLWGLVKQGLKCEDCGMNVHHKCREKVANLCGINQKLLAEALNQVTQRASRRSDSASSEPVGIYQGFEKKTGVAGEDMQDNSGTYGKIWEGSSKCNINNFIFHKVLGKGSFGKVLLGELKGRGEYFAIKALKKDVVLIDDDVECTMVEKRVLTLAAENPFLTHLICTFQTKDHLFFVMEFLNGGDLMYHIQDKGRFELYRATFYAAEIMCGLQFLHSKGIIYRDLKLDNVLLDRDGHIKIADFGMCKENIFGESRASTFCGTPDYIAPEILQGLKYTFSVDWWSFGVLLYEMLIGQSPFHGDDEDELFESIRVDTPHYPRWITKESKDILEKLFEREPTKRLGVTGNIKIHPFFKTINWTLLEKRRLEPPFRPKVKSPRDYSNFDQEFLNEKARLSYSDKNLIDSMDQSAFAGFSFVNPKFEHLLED

CCCCCC1CC1CC1CC1CCCCCCCC(=O)O (centres unmarked) [BR-101, 2-[(2-pentylcyclopropyl)methyl]cyclopropaneoctanoic acid]
effect on PKCδ at higher concentrations (PKCδ): partially inhibited | levels of intracellular Aβ (Aβ; various concentrations): markedly reduced | levels of secreted Aβ (Aβ; various concentrations): markedly reduced | concentration dependence of Aβ inhibition (Aβ; fatty acid derivatives up to 10 μM to 100 μM): monotonically increasing inhibition | effect on cell survival [1]: no effect | effect on proliferation [1]: no effect | TACE activity (TACE): small increases | ECE activity [2]: sustained increase
